{"source": "paper PMC6125145", "about": "“Mitochondrial Supercomplexes Do Not Enhance Catalysis by Quinone Channeling” (Cell Metabolism, 2018)", "type_in_all_cases": "biochemical", "key": {"[1]": {"molecular_target": "T1, AOX (alternative oxidase) (Trypanosoma brucei, UniProt Q26710)", "T1 construct": "expressed in E. coli FN102 (hemA deficient), purified in DDM and added to membranes", "T1 sequence (Q26710 25-329)": "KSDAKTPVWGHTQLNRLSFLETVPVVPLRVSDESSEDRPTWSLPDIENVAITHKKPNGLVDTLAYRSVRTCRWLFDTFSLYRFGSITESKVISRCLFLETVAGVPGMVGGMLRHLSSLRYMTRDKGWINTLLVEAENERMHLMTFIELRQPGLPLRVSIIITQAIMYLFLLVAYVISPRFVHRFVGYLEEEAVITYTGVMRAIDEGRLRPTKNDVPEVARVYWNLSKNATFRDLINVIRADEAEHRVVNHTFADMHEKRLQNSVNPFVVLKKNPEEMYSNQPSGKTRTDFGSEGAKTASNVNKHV", "test": "NADH:O2 oxidoreduction of SMPs with added purified AOX, cyanide-insensitive rate", "settings": "300 or 500 nM ascofuranone, 0.1 mg AOX per mg SMP, 200 μM NADH, 400 μM NaCN (500 nM trace) or gramicidin (300 nM), pH 7.5, 32 °C"}, "[2]": {"molecular_target": "T2, complex I (CI, NADH:ubiquinone oxidoreductase) (Bos taurus, UniProt P03887+P17694+P42026)", "T2 construct": "gene NDUFS2; native enzyme in coupled submitochondrial particles (inverted inner-membrane vesicles) from bovine heart mitochondria; in supercomplexes; with NADH-ubiquinone oxidoreductase 75 kDa subunit, mitochondrial; NADH dehydrogenase [ubiquinone] flavoprotein 1, mitochondrial; NADH dehydrogenase [ubiquinone] flavoprotein 2, mitochondrial; NADH dehydrogenase [ubiquinone] iron-sulfur protein 3, mitochondrial; NADH dehydrogenase [ubiquinone] iron-sulfur protein 8, mitochondrial; NADH-ubiquinone oxidoreductase chain 2; NADH-ubiquinone oxidoreductase chain 3; NADH-ubiquinone oxidoreductase chain 4; NADH-ubiquinone oxidoreductase chain 4L; NADH-ubiquinone oxidoreductase chain 5; NADH-ubiquinone oxidoreductase chain 6", "T2 sequence (P17694 34-463)": "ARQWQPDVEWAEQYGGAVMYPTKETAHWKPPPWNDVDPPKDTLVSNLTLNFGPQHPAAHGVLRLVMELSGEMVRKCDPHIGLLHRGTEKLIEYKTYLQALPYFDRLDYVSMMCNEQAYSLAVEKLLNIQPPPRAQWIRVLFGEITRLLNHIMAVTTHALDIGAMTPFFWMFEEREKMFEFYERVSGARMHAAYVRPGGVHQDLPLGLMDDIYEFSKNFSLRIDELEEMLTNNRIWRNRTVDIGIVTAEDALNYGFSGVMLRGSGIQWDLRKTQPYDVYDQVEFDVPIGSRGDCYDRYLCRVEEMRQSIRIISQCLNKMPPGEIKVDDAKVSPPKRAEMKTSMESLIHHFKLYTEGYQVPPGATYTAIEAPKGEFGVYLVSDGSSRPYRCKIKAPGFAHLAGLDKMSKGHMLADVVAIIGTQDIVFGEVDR", "T2 sequence (P03887 whole entry)": "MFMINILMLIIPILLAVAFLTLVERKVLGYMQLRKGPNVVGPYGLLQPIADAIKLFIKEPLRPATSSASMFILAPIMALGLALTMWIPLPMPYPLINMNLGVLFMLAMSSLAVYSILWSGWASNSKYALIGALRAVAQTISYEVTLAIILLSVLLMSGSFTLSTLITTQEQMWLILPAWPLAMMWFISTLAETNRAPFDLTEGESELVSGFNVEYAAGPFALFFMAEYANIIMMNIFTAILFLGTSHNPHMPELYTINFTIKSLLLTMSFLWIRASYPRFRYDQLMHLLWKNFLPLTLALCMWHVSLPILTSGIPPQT", "T2 sequence (P42026 38-216)": "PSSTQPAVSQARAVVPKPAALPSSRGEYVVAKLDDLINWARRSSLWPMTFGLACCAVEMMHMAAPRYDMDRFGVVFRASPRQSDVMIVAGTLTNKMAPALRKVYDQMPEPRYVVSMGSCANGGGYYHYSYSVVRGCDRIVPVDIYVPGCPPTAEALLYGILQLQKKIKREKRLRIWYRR", "T2 sequence (P25708 21-464 partner)": "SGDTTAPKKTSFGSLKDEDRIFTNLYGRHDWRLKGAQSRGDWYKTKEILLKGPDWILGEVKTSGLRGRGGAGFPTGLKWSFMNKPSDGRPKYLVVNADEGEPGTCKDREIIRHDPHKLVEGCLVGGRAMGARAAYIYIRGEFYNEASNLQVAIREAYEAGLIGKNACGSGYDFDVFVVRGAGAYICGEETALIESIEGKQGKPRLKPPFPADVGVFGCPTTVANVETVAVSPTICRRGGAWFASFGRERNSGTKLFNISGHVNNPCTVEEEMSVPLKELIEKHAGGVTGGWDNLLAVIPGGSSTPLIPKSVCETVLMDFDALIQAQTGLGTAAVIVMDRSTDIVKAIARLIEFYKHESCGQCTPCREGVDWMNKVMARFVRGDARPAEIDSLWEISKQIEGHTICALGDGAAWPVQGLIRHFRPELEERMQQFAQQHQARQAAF", "T2 sequence (P15690 24-727 partner)": "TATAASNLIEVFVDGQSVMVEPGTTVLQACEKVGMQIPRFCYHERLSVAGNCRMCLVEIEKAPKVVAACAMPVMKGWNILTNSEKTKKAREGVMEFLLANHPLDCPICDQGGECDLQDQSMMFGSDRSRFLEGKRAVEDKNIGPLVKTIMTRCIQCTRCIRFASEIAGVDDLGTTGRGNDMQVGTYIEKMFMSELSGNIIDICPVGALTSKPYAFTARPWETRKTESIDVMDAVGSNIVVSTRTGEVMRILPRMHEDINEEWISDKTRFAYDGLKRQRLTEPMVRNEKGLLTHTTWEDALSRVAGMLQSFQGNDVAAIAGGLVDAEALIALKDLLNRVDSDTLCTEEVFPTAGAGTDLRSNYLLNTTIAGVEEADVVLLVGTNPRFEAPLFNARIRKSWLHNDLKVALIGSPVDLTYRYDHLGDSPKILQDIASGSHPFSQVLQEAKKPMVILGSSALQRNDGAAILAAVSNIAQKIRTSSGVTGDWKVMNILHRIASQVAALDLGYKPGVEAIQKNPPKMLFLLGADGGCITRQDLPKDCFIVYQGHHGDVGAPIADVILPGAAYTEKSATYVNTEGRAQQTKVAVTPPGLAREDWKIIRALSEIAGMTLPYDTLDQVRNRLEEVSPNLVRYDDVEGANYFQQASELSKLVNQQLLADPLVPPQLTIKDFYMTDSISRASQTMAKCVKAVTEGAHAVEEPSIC", "test": "reverse electron transfer (NAD+ reduction) in bovine heart SMPs, NADH absorbance", "settings": "RET assay: 1 mM NAD+, 10 mM succinate, 1 mM MgATP, 50 μg/mL SMPs, pH 7.5, 32 °C, anaerobic; RET direction only, NADH oxidation not inhibited; RET also needs complex II"}, "[3]": {"molecular_target": "T1, AOX (alternative oxidase)", "test": "NADH:O2 oxidoreduction via complex I with AOX added to SMPs or CI-only proteoliposomes", "settings": "quinol produced by complex I from endogenous ubiquinone or ubiquinone-10 in proteoliposomes, pH 7.5, 32 °C"}}, "data": [{"smiles": "C/C(=C\\Cc1c(O)c(Cl)c(C)c(C=O)c1O)CC/C=C(\\C)[C@@H]1CC(=O)C(C)(C)O1", "note": "[ascofuranone]", "values": [{"measurement": "NADH:O2 oxidoreduction of SMPs with added purified AOX, cyanide-insensitive rate", "setting": "[1]", "value": "AOX-catalyzed quinol oxidation is insensitive to cyanide"}, {"measurement": "IC50", "setting": "[2]", "value": "440 ± 40", "unit": "nM"}]}, {"smiles": "COc1c(O)c(C)c(C/C=C(\\C)CC/C=C(\\C)CC/C=C(\\C)CC/C=C(\\C)CC/C=C(\\C)CC/C=C(\\C)CC/C=C(\\C)CC/C=C(\\C)CC/C=C(\\C)CCC=C(C)C)c(O)c1OC", "note": "[quinol]", "values": [{"measurement": "NADH:O2 oxidoreduction via complex I with AOX added to SMPs or CI-only proteolip", "setting": "[3]", "value": "also observed in synthetic, CI-only proteoliposomes containing ubiquinone-10"}]}]}
